Test results reported in PubChem BioAssay (NCI).
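Protocol summary: plate cells (96-well), add compound at 5 concentrations, incubate 48 h, interpolate endpoints linearly. GI50: concentration for 50% inhibition of growth. TGI: total growth inhibition.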

How the values were obtained:
Experiment in all cases: growth of human tumour cells (NCI), 48 h
LOX IMVI melanoma = test system: LOX IMVI melanoma
SK-MEL-5 melanoma = test system: SK-MEL-5 melanoma
PC-3 prostate = test system: PC-3 prostate
OVCAR-3 ovarian = test system: OVCAR-3 ovarian
NCI-H226 lung = test system: NCI-H226 lung
U251 CNS = test system: U251 CNS
SNB-19 CNS = test system: SNB-19 CNS
CAKI-1 renal = test system: CAKI-1 renal
A498 renal = test system: A498 renal
COLO 205 colon = test system: COLO 205 colon

Structure (SMILES)	GI50 (LOX IMVI melanoma) [µM]	TGI (LOX IMVI melanoma) [µM]	GI50 (SK-MEL-5 melanoma) [µM]	TGI (SK-MEL-5 melanoma) [µM]	GI50 (PC-3 prostate) [µM]	TGI (PC-3 prostate) [µM]	GI50 (OVCAR-3 ovarian) [µM]	TGI (OVCAR-3 ovarian) [µM]	TGI (NCI-H226 lung) [µM]	GI50 (U251 CNS) [µM]	TGI (U251 CNS) [µM]	GI50 (SNB-19 CNS) [µM]	TGI (SNB-19 CNS) [µM]	GI50 (CAKI-1 renal) [µM]	TGI (CAKI-1 renal) [µM]	GI50 (A498 renal) [µM]	TGI (A498 renal) [µM]	GI50 (COLO 205 colon) [µM]	TGI (COLO 205 colon) [µM]	GI50 (NCI-H226 lung) [µM]
Cc1cccc(Cl)c1NC(=O)c1cnc(Nc2cc(N3CCOCC3)cc(S(C)(=O)=O)c2)s1	0.0977	0.938	> 8.89	> 10	1.46	> 10	0.476	> 10	> 10	> 5.57	> 10	> 4.95	> 10	0.0975	0.742	0.254	2.39	0.572	> 10	–
O=S(=O)(NCCCNc1cc(-c2cn(-c3ccccc3)nc2-c2cccc(O)c2)ccn1)c1ccc(Br)cc1	1.49	2.9	1.27	2.63	2.11	7.83	1.66	3.61	8.66	1.21	4.44	2.98	14.7	2.25	12.6	0.386	2.89	1.65	3.4	2.32
Oc1ccccc1/C=N\NC(=S)N/N=C/c1ccccc1O	1.4	27.7	1.69	8.53	5.99	> 100	0.451	24.6	> 100	1.07	> 100	2.94	> 100	0.548	3.94	3.66	21.9	4.23	18.9	2.26
COc1ccc2c(c1)C(c1cc(OC)c3c(c1)OCO3)C1=C(COC1=O)N2 (stereo not drawn)	0.66	> 100	0.262	1.9	0.356	> 100	0.205	0.481	4.8	0.419	> 47.9	0.468	> 100	0.769	> 100	0.105	1.48	0.277	0.713	0.389
CN(C)Cc1c(C(=O)NCCOc2ccc(C(=O)NO)cc2)oc2ccccc12	0.289	1.11	0.159	0.347	0.214	5.06	0.272	0.969	7.6	0.229	0.976	0.453	13.9	0.311	1.57	0.126	0.411	0.133	0.282	0.626
O=[N+]([O-])c1oc2ccc3ccccc3c2c1CCO	–	9.52	–	1.98	–	87.7	–	58.5	30.1	–	56.9	–	68.4	–	8.58	–	0.72	–	1.46	–
COc1ccc(-c2cn(-c3cc(OC)c(OC)c(OC)c3)c(=O)[nH]2)cc1OC	> 100	> 100	> 100	> 100	> 100	> 100	> 100	> 100	> 100	> 100	> 100	> 100	> 100	> 100	> 100	80.3	> 100	> 100	> 100	> 100
COc1cc2c(c(OC)c1OC)-c1c(c3ccc([N+](=O)[O-])cc3c(=O)n1CCCN)C2=O	1.01	2.06	7.15	15.8	7.68	15	10.7	19.1	19.4	0.92	1.75	–	–	0.895	10.9	8.22	18	8.72	> 50	9.38
CCCCCCCCCCCCCCCCN(CC)CC	1.73	3.38	1.94	3.79	2.16	5.97	2.87	7.99	16.9	–	–	3.29	13.9	1.69	3.24	17.9	37.2	2.01	3.82	3.74
COC(=O)CNc1nc(N(C)O)nc(N(C)O)n1	1.71	> 100	2.2	15.9	> 100	> 100	–	–	> 100	2.26	> 100	27.3	> 100	13.1	> 100	20.3	> 100	3.99	> 100	8.31
